According to patent US20230257771A1, “AAV DELIVERY SYSTEM FOR LUNG CANCER TREATMENT” (Christiana Care Health Services, Inc., priority 2020, published 2023):
Entries after “also recorded” stand apart in the source; their conditions may differ.

Key:
[1] = system: 2-11 A549 cells (NRF2 knockout); test: MTS cell proliferation assay after drug exposure, NRF2 knockout A549 (2-11); assay type: cell-based, human; details: 72 hours; for chemosensitivity (MTS): increasing dosages of single drug
Experimental: (§1) Cell viability was evaluated using the CellTiter 96 Aqueous Non-Radioactive Cell Proliferation Assay (Promega, Madison, WI). A549 cell lines were plated at 2×10^3 cells per well and allowed to culture for 24 hours. The cell media was then aspirated, the cells washed with PBS, then exposed to the MTS reagent for 3 hours. After 3 hours of MTS bio-reduction by proliferating cells, the formazan product’s absorbance was measured using a 450 nm filter on an Infinite 2000 PRO microplate reader (Tecan, Mannadorf, Switzerland). Cell viability after drug exposure was evaluated using the CellTiter 96 Aqueous Non-Radioactive Cell Proliferation Assay. A549 cell lines were plated at 2×10^3 cells per well and allowed to culture for 24 hours. The cells were then treated with cisplatin, carboplatin, or a combination of cisplatin and vinorelbine for three days. The cell media was then aspirated, the cells washed with PBS, then exposed to the MTS reagent for 3 hours. After 3 hours of MTS bio-reduction by proliferating cells, the formazan product’s absorbance was measured using a 450 nm filter on an Infinite 2000 PRO microplate reader.

[2] = system: NRF2 knockout A549 (2-11) tumors; test: Xenograft mouse model, NRF2 knockout A549 (2-11) tumors; assay type: in vivo
Experimental: (§2) The animal trials presented herein were carried out at Washington Biotech Inc., Simpsonville Maryland, under animal use and care protocol (SOP 505, SOP 520, SOP 522, SOP 1610, SOP1650) approved by the animal care and use committee of Washington Biotechnology Inc. (AAALAC accredited Animal Welfare Assurance number A4192-01). The human xenograft model was established using methodology reported previously. Kellar et al., Biomed Res. Int. 2015, 1-17 (2015). Female athymic nude mice (Envigo, 5-6 weeks old) were used in this study. Approximately 5 × 10^6 cells (wild type A549 or homozygous knockout (clonal expansion 2-11)) suspended in PBS with 20% Matrigel were injected subcutaneously into right flank of each mouse. Tumor volume was measured three times a week with a digital caliper once palpable, and calculated using the formula, tumor size = ab^2/2, where ‘a’ is the larger and ‘b’ is the smaller of the two dimensions. When tumors grew up to a mean volume of around 100 mm^3, A549 tumor bearing mice or A549-2-11 tumor bearing mice were randomly divided into 7 groups (N=5 for each group) respectively and subject to dose/regimen-finding study. They were treated with tail vein injection of (1) Cisplatin (2 mg/kg), (2) Carboplatin (25 mg/kg), (3) Cisplatin (5 mg/kg) and Vinorelbine (5 mg/kg) or (4) saline on day 0, 3, 6 and 9 (day 0 is designated as the day of dose started) (Sanjana et al., 2014, Nature Methods 11(8); 783-784). Tumor volume and body weight was closely monitored over time. After 16 days, the animals were sacrificed, with tumor removed, weighed and processed for molecular analysis. Mice were euthanized. The data were expressed as mean ± SD. Student’s t-test and one-way or two-way ANOVA was used to assess the significance of difference. A P value < 0.05 was considered significant.
A549 xenografts were resected on day 16, snap frozen in liquid nitrogen and stored in -80° C. until usage. All immunofluorescence staining was performed as previously described. Wang et al., Investig. Opthalmology Vis. Sci. 58, 3896 (2017). Briefly, tumors were embedded in Optimum Cutting Temperature (Tissue Tek, Torrance, CA, USA) and 16-µm-thick sections were obtained with a Leica CM3050 cryostat (Leica Microsystems, Buffalo Grove, IL, USA), and mounted on slides. Slides were fixed and incubated with blocking buffer for 1 hour at room temperature. Sections were then incubated with primary antibody (refer to Table 3 for more details), then washed in PBS and incubated with Alexa Fluor 488 labeled secondary antibody (1:200 dilution; Invitrogen, Grand Island, NY, USA) for 1 hour at RT. Sections were washed in PBS, then mounted with SlowFade Gold antifade mountant with DAPI (Invitrogen, Carlsbad, CA, USA). […]

wild type A549 cells = test: MTS cell proliferation assay after drug exposure, wild type A549; assay type: cell-based, human; details: 72 hours
Experimental: as §1

wild type A549 tumors = test: Xenograft mouse model, wild type A549 tumors; assay type: in vivo
Experimental: as §2, with “They were treated with tail vein injection of (1) Cisplatin (2 mg/kg), (2) Carboplatin (25 mg/kg), (3) Cisplatin (5 mg/kg) and Vinorelbine (5 mg/kg) or (4) saline on day 0, 3, 6 and 9 (day 0 is designated as the day of dose started) (Sanjana et al., 2014, Nature Methods 11(8); 783-784).” left out, “After 16 days, the animals were sacrificed, with tumor removed, weighed and processed for molecular analysis. Mice were euthanized.” left out, “Student’s t-test and one-way or two-way ANOVA was used to assess the significance of difference. A P value < 0.05 was considered significant.” left out

A549 Clone 1-17 cells = test: MTS assay, A549 Neh2 KO Clone 1-17 treated with cisplatin; assay type: cell-based, human; details: cisplatin 1, 2, 3, 5, 10 uM, compared to wildtype A549
Excerpt: (§3) The lung adenocarcinoma-derived cell line, A549, was used transfected with CRISPR/Cas9 designed to target exon 2 of NRF2 to create individual clones with random indel patterns. A total of three clones, 1-17, 2-16, and 2-23, were isolated and expanded. All three clones were collected for genomic DNA isolation and sanger sequencing to confirm the indels present. The DECODR program was used to deconvolute the sanger sequencing of each clone. The A549 cell line is polyploid and therefore, these clones contain 3 alleles of the NRF2 gene. Clone 1-17 contains -2, -2, -13 base pair deletions. Clone 2-16 contains a -1 base pair deletion across all alleles. Clone 2-23 contains two wildtype alleles and a -2 base pair deletion. A cell proliferation assay was used to assess the functionality of NRF2 after CRISPR targeting in combination with cisplatin treatment. The MTS assay was used to measure cellular proliferation of A549 wildtype, Clone 1-17, 2-16, and 2-23 cells. Cells were plated at the same concentration in each well and allowed to recover for 24 hours. […] Absorbance values for each clone and concentration were normalized by dividing the absorbance by the absorbance of each control well (0 µM). Normalized values for each clone at each concentration were then averaged across and standard error of the mean was calculated. […]

A549 Clone 2-16 cells = test: MTS assay, A549 Neh2 KO Clone 2-16 treated with cisplatin; assay type: cell-based, human; details: cisplatin 1, 2, 3, 5, 10 uM, compared to wildtype A549
Excerpt: as §3

A549 Clone 2-23 cells = test: MTS assay, A549 Neh2 KO Clone 2-23 treated with cisplatin; assay type: cell-based, human; details: cisplatin 1, 2, 3, 5, 10 uM, compared to wildtype A549
Excerpt: as §3

[3] = increasing cisplatin with Vinorelbine at 5 µM
[4] = increasing dosages of cisplatin
[5] = 5 mg/kg cisplatin and 5 mg/kg vinorelbine in combination
[6] = cisplatin 2 mg/kg, tumors harvested day 16

Compound | chemosensitivity (MTS) ([1]; listed as Carboplatin) | tumor growth over 16 days ([2]; 25 mg/kg carboplatin tail vein) | cisplatin dosage above which elevated sensitivity is shown (wild type A549 cells; [3]) [µM] | dose dependence of cell proliferation (MTS) (wild type A549 cells; [4]) | resistance to drug (MTS proliferation) (wild type A549 cells; [4]) | concentrations with loss of proliferation ([1]; cisplatin) [µM] | chemosensitivity (MTS), combination [1, 3] | chemosensitivity (MTS) [1] | tumor growth over 16 days (wild type A549 tumors; [5]) | size of extracted tumors (wild type A549 tumors; [6]) | tumor growth over 16 days [2, 5] | tumor growth over 16 days ([2]; cisplatin 2 mg/kg tail vein, day 0, 3, 6, 9) | size of extracted tumors [2, 6] | sensitivity to cisplatin (MTS) (A549 Clone 1-17 cells) | sensitivity to cisplatin (MTS) (A549 Clone 2-16 cells) | sensitivity to cisplatin (MTS) (A549 Clone 2-23 cells)
N.N.O=C([O-])C1(C(=O)[O-])CCC1.[Pt+2] [carboplatin] | the cell killing response reflected what was observed in the experiments using cisplatin | reduction in tumor proliferation |  |  |  |  |  |  |  |  |  |  |  |  |  | 
N.N.[Cl][Pt][Cl] [cisplatin] |  |  | > 5 | slight increase in cell proliferation up to 3 µM of cisplatin before proliferation is adversely affected at final concentrations of 5 µM and 10 µM | resistant to high dosages | ≥ 1 | increased sensitivity; also recorded: a heightened sensitivity is also observed | heightened sensitivity | more sensitive to this combination of drugs | proliferate aggressively | cessation of tumor growth and maintenance of tumor size; also recorded: reduction in tumor proliferation | proliferation of the implanted cells is arrested; also recorded: reduction in tumor proliferation | smallest tumors | relatively the same trend of sensitivity | relatively the same trend of sensitivity | even higher resistance than the wildtype cells
